Measured values published in patent US12209096B2, “Compounds and compositions for inducing chondrogenesis” (NOVARTIS AG, priority 2017, dated 2025).

How the values were obtained:
[1] = tested on: C3H10T1/2 cell line; assay: alkaline phosphatase assay in C3H10T1/2; type: cell-based; conditions: Mus musculus, C3H 10T1/2, 144 h, alkaline phosphatase assay in C3H10T1/2, 6 days; for Emax: read-out: (D) % Efficacy; for IC50: read-out: (D) IC50
Protocol: To initiate differentiation in C3H10T1/2, Clone 8 (ATCC cat #CCL-226), 4,000 cells were plated/well in 384 Perkin Elmer CellCarrier Ultra plate in DMEM/High glucose (HyClone cat #SH30022.01) containing 10% FBS and 1× Antibiotic/Antimycotic (HyClone cat #SV30079.01). After 24 hours the test compound was then added to each well at the indicated dose. The cultures were grown at 37° C. for 6 days.
To detect the presence of hypertrophic cells, C3H10T1/2 were fixed with 4% paraformaldehyde and Hoeschst dye for 20 minutes, rinsed in PBS, then stained with Fast Blue RR Salt with Naphthol AS-MX Phosphate Alkaline Solution.
The ALP staining was imaged by fluoresecent microscopy, using the 561 wavelength, and/or quantified by high content imagining with the ImageXpress Micro Confocal (Molecular Devices, Sunnyvale, CA). Data analyses were performed with the customized multiwavelength cell-scoring application looking at the number of ALP positive cells per well.

[2] = tested on: NHACs; assay: calcium flux assay; type: cell-based, human; conditions: Homo sapiens; for Emax: read-out: (A) % Efficacy
Outline: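 Normal human articular chondrocytes plated at 2000 cells/well and loaded 24 h later with Calcium 5 dye in HBSS/HEPES with 5 mM probenecid for 1 h at room temperature. Test compound added at indicated dose; fluorescence (ex 470–495/em 515–575 nm) recorded on FLIPR before and after addition.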

Row | Structure (SMILES) | IC50 [1] [µM] | EC50 [2] [µM] | Emax [1] [%] | Emax [2] [%]
1 | O=C(Nc1ccc(Cl)c(Cl)c1)[C@H]1[C@H](c2ccnc(C(F)(F)F)c2)[C@@H]2O[C@H]1C[C@H]2O (single isomer, unassigned) [Example 145b] | 11 | – | 83 | –
2 | O=C(Nc1cnc(Cl)c(Cl)c1)[C@H]1[C@@H]2O[C@@H]([C@H]3C[C@H]32)[C@@H]1c1ccncc1 [Example 136, (1S,2S,4R,5R,6R,7S)—N-(5,6-dichloropyridin-3-yl)-7-(pyridin-4-yl)-8-oxatricyclo[3.2.1.0^2,4]octane-6-carboxamide] | – | 17 | – | 254
3 | O=C(Nc1cnc(Cl)c(Cl)c1)[C@H]1[C@@H](c2ccncc2)[C@H]2O[C@@H]1C[C@@H]2O (single isomer, unassigned) [Example 10a] | – | > 50 | – | 55
4 | O=C(Nc1ccc(Cl)c(Cl)c1)[C@H]1[C@@H](c2ccnc(F)c2)[C@H]2O[C@@H]1C[C@@H]2O (racemic) [Example 52, rac-(1R,2S,3S,4R,5S)—N-(3,4-dichlorophenyl)-3-(2-fluoropyridin-4-yl)-5-hydroxy-7-oxabicyclo[2.2.1]heptane-2-carboxamide] | – | > 50 | – | 4
5 | COc1ccc(NC(=O)[C@@H]2[C@@H]3O[C@@H]([C@H]4C[C@H]43)[C@@H]2c2ccncc2)cn1 [Example 33, (1S,2S,4R,5R,6S,7S)—N-(6-methoxypyridin-3-yl)-7-(pyridin-4-yl)-8-oxatricyclo[3.2.1.0^2,4]octane-6-carboxamide] | – | 4.6 | – | 49
6 | Cc1cc([C@@H]2[C@@H](C(=O)Nc3cccc(C(F)(F)F)c3)[C@@H]3O[C@H]2C[C@H]3O)ccn1 [Example 86, (1S,2R,3S,4S,6R)-6-hydroxy-3-(2-methylpyridin-4-yl)-N-(3-(trifluoromethyl)phenyl)-7-oxabicyclo[2.2.1]heptane-2-carboxamide] | – | > 50 | – | 38
7 | O=C(Nc1cccc(C(F)(F)F)c1)[C@H]1[C@@H]2O[C@@H]([C@H]3C[C@H]32)[C@@H]1c1ccncc1 [Example 131, (1S,2S,4R,5R,6R,7S)-7-(pyridin-4-yl)-N-(3-(trifluoromethyl)phenyl)-8-oxatricyclo[3.2.1.0^2,4]octane-6-carboxamide] | – | 19 | – | 360
8 | O=C(Nc1ccc(Cl)c(Cl)c1)[C@@H]1[C@@H]2O[C@@H]([C@H]3C[C@H]32)[C@@H]1c1ccnc(F)c1F (single isomer, unassigned) [Example 29] | – | > 50 | – | 6
9 | Cc1ccc([C@H]2[C@H]3O[C@H](C[C@@H]3O)[C@H]2C(=O)Nc2ccc(Cl)c(Cl)c2)cn1 [Example 48, (1R,2S,3S,4R,5S)—N-(3,4-dichlorophenyl)-5-hydroxy-3-(6-methylpyridin-3-yl)-7-oxabicyclo[2.2.1]heptane-2-carboxamide] | – | 22 | – | 80
10 | O=C(Nc1cnc(Cl)c(Cl)c1)[C@@H]1[C@@H](c2ccnc(F)c2F)[C@H]2O[C@@H]1C[C@@H]2O [Example 91, (1R,2R,3S,4R,5S)—N-(5,6-dichloropyridin-3-yl)-3-(2,3-difluoropyridin-4-yl)-5-hydroxy-7-oxabicyclo[2.2.1]heptane-2-carboxamide] | – | 4.4 | – | 66
11 | O=C(Nc1ccc(Cl)c(Cl)c1)[C@@H]1[C@@H](c2ccnc(C(F)(F)F)c2)[C@H]2O[C@@H]1C[C@@H]2O (single isomer, unassigned) [Example 145a] | 1.2 | – | 100 | –
12 | COc1cc([C@H]2[C@H]3O[C@H]([C@@H]4C[C@@H]43)[C@@H]2C(=O)Nc2ccc(Cl)c(Cl)c2)ccn1 [Example 118, (1S,2S,4R,5R,6R,7S)—N-(3,4-dichlorophenyl)-7-(2-methoxypyridin-4-yl)-8-oxatricyclo[3.2.1.0^2,4]octane-6-carboxamide] | – | 8.2 | – | 118
13 | O=C(Nc1ccc(Cl)c(Cl)c1)[C@@H]1[C@@H](c2cnc(F)nc2)[C@H]2O[C@@H]1C[C@@H]2O [Example 151, (1R,2R,3S,4R,5S)—N-(3,4-dichlorophenyl)-3-(2-fluoropyrimidin-5-yl)-5-hydroxy-7-oxabicyclo[2.2.1]heptane-2-carboxamide] | – | > 50 | – | 0
14 | O=C(Nc1cccc(C(F)(F)F)c1)[C@@H]1[C@@H]2O[C@@H]([C@H]3C[C@H]32)[C@@H]1c1cncnc1 [Example 37, (1S,2S,4R,5R,6S,7S)-7-(pyrimidin-5-yl)-N-(3-(trifluoromethyl)phenyl)-8-oxatricyclo[3.2.1.0^2,4]octane-6-carboxamide] | – | > 50 | – | 26
15 | O=C(Nc1cnc(Cl)c(Cl)c1)[C@H]1[C@@H]2O[C@@H]([C@H]3C[C@H]32)[C@@H]1c1ccnc(F)c1F (single isomer, unassigned) [Example 72] | – | 7.7 | – | 208

Further lines, with some results ahead:

Row | IC50 [1] [µM] | EC50 [2] [µM] | Structure (SMILES) | Emax [1] [%] | Emax [2] [%]
16 | – | 25 | O=C(Nc1cnc(Cl)c(Cl)c1)[C@@H]1[C@@H](c2ccnc(F)c2)[C@H]2O[C@@H]1C[C@H]2NCCO [Example 176, (1R,2R,3S,4R,5R)—N-(5,6-dichloropyridin-3-yl)-3-(2-fluoropyridin-4-yl)-5-((2-hydroxyethyl)amino)-7-oxabicyclo[2.2.1]heptane-2-carboxamide] | – | 51
17 | – | 2.1 | Cc1cc([C@H]2[C@H]3O[C@H](C[C@H]3F)[C@@H]2C(=O)Nc2ncc(C)s2)ccn1 [Example 102, (1R,2R,3S,4R,5R)-5-fluoro-3-(2-methylpyridin-4-yl)-N-(5-methylthiazol-2-yl)-7-oxabicyclo[2.2.1]heptane-2-carboxamide] | – | 84
18 | – | 21 | Cc1ccc([C@H]2[C@H]3O[C@H](C[C@H]3F)[C@H]2C(=O)Nc2ccc(Cl)c(Cl)c2)cn1 [Example 64, (1R,2S,3S,4R,5R)—N-(3,4-dichlorophenyl)-5-fluoro-3-(6-methylpyridin-3-yl)-7-oxabicyclo[2.2.1]heptane-2-carboxamide] | – | 253
19 | – | 14 | Cc1cc([C@H]2[C@H]3O[C@H]([C@@H]4C[C@@H]43)[C@H]2C(=O)Nc2cnc(Cl)c(Cl)c2)ccn1 (single isomer, unassigned) [Example 45] | – | 32
20 | – | > 50 | O=C(Nc1cccc(C(F)(F)F)c1)[C@H]1[C@@H]2O[C@@H]([C@@H](O)[C@H]2O)[C@@H]1c1ccncc1 [Example 159, (1S,2R,3S,4R,5S,6R)-5,6-dihydroxy-3-(pyridin-4-yl)-N-(3-(trifluoromethyl)phenyl)-7-oxabicyclo[2.2.1]heptane-2-carboxamide] | – | 11
21 | – | 5.4 | O=C(Nc1ccc(Cl)c(Cl)c1)[C@H]1[C@@H]2O[C@@H]([C@H]3C[C@H]32)[C@@H]1c1cncnc1 (single isomer, unassigned) [Example 126a] | – | 233
22 | – | 21 | COc1cc([C@H]2[C@H]3O[C@H](C[C@@H]3O)[C@@H]2C(=O)Nc2ccc(Cl)c(Cl)c2)ccn1 (racemic) [Example 139, rac-(1R,2R,3S,4R,5S)—N-(3,4-dichlorophenyl)-5-hydroxy-3-(2-methoxypyridin-4-yl)-7-oxabicyclo[2.2.1]heptane-2-carboxamide] | – | 223
23 | – | > 50 | O=C(Nc1ccc(Cl)c(Cl)c1)[C@@H]1[C@H](c2ccnc(F)c2)[C@@H]2O[C@H]1C[C@H]2O (single isomer, unassigned) [Example 52b] | – | 1
24 | – | > 50 | Cc1nccc([C@H]2[C@H]3O[C@H](C[C@@H]3O)[C@@H]2C(=O)Nc2ccc(Cl)c(Cl)c2)n1 [Example 82, (1R,2R,3S,4R,5S)—N-(3,4-dichlorophenyl)-5-hydroxy-3-(2-methylpyrimidin-4-yl)-7-oxabicyclo[2.2.1]heptane-2-carboxamide] | – | 74
25 | – | 18 | Nc1ncc([C@H]2[C@H]3O[C@H]([C@@H]4C[C@@H]43)[C@@H]2C(=O)Nc2ccc(Cl)c(Cl)c2)cn1 [Example 132, (1S,2S,4R,5R,6R,7S)-7-(2-aminopyrimidin-5-yl)-N-(3,4-dichlorophenyl)-8-oxatricyclo[3.2.1.0^2,4]octane-6-carboxamide] | – | 321
26 | – | > 50 | COc1ccc(NC(=O)[C@H]2[C@H]3O[C@H]([C@@H]4C[C@@H]43)[C@H]2c2ccc(C)nc2)cn1 [Example 3, (1R,2R,4S,5S,6R,7R)-N-(6-methoxypyridin-3-yl)-7-(6-methylpyridin-3-yl)-8-oxatricyclo[3.2.1.0^2,4]octane-6-carboxamide] | – | 0
27 | – | > 50 | O=C(Nc1ccc(Cl)c(Cl)c1)[C@@H]1[C@@H](c2ccncc2)[C@H]2O[C@@H]1C[C@@H]2O [Example 150, (1R,2R,3S,4R,5S)—N-(3,4-dichlorophenyl)-5-hydroxy-3-(pyridin-4-yl)-7-oxabicyclo[2.2.1]heptane-2-carboxamide] | – | 5
28 | – | 30 | Nc1ncc([C@@H]2[C@@H](C(=O)Nc3ccc(Cl)c(Cl)c3)[C@@H]3O[C@H]2C[C@H]3F)cn1 [Example 114, (1S,2R,3S,4S,6R)-3-(2-aminopyrimidin-5-yl)-N-(3,4-dichlorophenyl)-6-fluoro-7-oxabicyclo[2.2.1]heptane-2-carboxamide] | – | 127
